Measurements reported in ChEMBL document CHEMBL5038618, “Discovery of PT-65 as a highly potent and selective Proteolysis-targeting chimera degrader of GSK3 for treating Alzheimer's disease” (Eur J Med Chem, 2021).
The source made the active and inactive calls. The calls are words filed in the database; no cut-off is given here.

Key:
[1] = target: T1, Protein cereblon/Glycogen synthase kinase-3 beta (Homo sapiens, UniProt P49841+Q96SW2); test: Protac activity at CRBN/GSK3beta in human SH-SY5Y cells assessed as GSK3beta degradation at 1 uM pretreated with MG-132 for 2 hrs followed by compound addition and measured after 24 hrs; format: cell-based
[2] = target: T1, Protein cereblon/Glycogen synthase kinase-3 beta; test: Protac activity at CRBN/GSK3beta in human SH-SY5Y cells assessed as induction of GSK3beta degradation at 0.1 uM measured after 24 hrs; format: cell-based
SH-SY5Y [3] = test: Induction of apoptosis in human SH-SY5Y cells assessed as live cells at 125 nM preincubated for 2 hrs followed by coincubation with Abeta42 and measured after 72 hrs by Annexin V-FITC/propidium iodide staining based flow cytometry (Rvb=94.8%); format: functional; conditions: time 74 hrs
Rattus norvegicus [4] = test: Antialzheimer activity against hippocampal tissue of okadaic acid induced Sprague-Dawley rat assessed as reduction on GSK3alpha protein level at 200 to 600 uM, iv by western blot assay; format: functional, organism-based; conditions: Hippocampus, dose 200-600 µM
hERG (KCNH2) = hERG (KCNH2) (Homo sapiens, UniProt Q12809); test: Inhibition of hERG expressed in CHO cells at 40 uM by whole cell patch clamp assay; format: cell-based; conditions: CHO cells that express hERG
SH-SY5Y [5] = test: Induction of apoptosis in human SH-SY5Y cells assessed as live cells at 62.5 nM preincubated for 2 hrs followed by coincubation with Abeta42 and measured after 72 hrs by Annexin V-FITC/propidium iodide staining based flow cytometry (Rvb=94.8%); format: functional; conditions: time 74 hrs
SH-SY5Y [6] = test: Cytotoxicity against human SH-SY5Y cells assessed as increase in cell viability at 62.5 to 250 nM pretreated for 2 hrs followed by Abeta42 addition and measured after 72 hrs by CCK8 assay; format: functional, cell-based; conditions: dose 62.5-250 nM, time 74.0 hrs
Rattus norvegicus [7] = test: Improvement in learning and spatial memory in okadaic acid induced Sprague-Dawley rat assessed as increase in time spent in target quadrant at 200 to 600 uM, iv measured after 6 days by Morris water maze test; format: functional, organism-based; conditions: dose 200-600 µM, time 6.0 day
[8] = target: T2, Glycogen synthase kinase-3 beta (Homo sapiens, UniProt P49841); test: Binding affinity to recombinant GSK3beta (unknown origin) assessed as dissociation […] constant upto 0.00975 uM by SPR analysis
Target sequence in this assay (P49841 whole entry): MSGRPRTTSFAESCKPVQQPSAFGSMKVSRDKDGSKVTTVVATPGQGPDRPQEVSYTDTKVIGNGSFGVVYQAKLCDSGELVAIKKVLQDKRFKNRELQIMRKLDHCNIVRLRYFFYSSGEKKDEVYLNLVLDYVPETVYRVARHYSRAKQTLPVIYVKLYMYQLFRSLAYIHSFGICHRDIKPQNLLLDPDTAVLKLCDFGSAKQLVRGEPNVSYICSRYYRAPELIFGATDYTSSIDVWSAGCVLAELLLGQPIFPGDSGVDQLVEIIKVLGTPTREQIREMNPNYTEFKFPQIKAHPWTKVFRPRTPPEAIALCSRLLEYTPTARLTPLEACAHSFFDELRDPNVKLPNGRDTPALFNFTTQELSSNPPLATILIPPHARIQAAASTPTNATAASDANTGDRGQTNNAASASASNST

[9] = Downregulation of GSK3alpha expression in human SH-SY5Y cells accessed as fold change in GSK3alpha expression at 1 uM measured after 4 hrs by proteomic analysis; format: functional
[10] = target: T1, Protein cereblon/Glycogen synthase kinase-3 beta; test: Protac activity at CRBN/GSK3beta in human SH-SY5Y cells assessed as induction of GSK3beta degradation at 1 uM measured after 24 hrs; format: cell-based
SH-SY5Y [11] = test: Induction of apoptosis in human SH--SY5Y cells assessed as late apoptotic cells at 250 nM preincubated for 2 hrs followed by coincubation with Abeta42 and measured after 72 hrs by Annexin V-FITC/propidium iodide staining based flow cytometry (Rvb=3.5%); format: functional; conditions: time 74 hrs
SH-SY5Y [12] = test: Induction of apoptosis in human SH-SY5Y cells assessed as early apoptotic cells at 62.5 nM preincubated for 2 hrs followed by coincubation with Abeta42 and measured after 72 hrs by Annexin V-FITC/propidium iodide staining based flow cytometry (Rvb=1%); format: functional; conditions: time 74 hrs
Rattus norvegicus [13] = test: Antialzheimer activity against hippocampal tissue of okadaic acid induced Sprague-Dawley rat assessed as reduction on tau protein level at 200 to 600 uM, iv by western blot assay; format: functional, organism-based; conditions: Hippocampus, dose 200-600 µM
[14] = target: T2, Glycogen synthase kinase-3 beta; conditions: dose microM <=0.00975
Target sequence in this assay (P49841 whole entry, looked up): as the sequence (P49841 whole entry) above
Description: Binding affinity to recombinant GSK3beta (unknown origin) assessed as association rate constant upto 0.00975 uM by SPR analysis

T1 sequence (P49841 whole entry, looked up): as the sequence (P49841 whole entry) above
T1 sequence (Q96SW2 whole entry, looked up): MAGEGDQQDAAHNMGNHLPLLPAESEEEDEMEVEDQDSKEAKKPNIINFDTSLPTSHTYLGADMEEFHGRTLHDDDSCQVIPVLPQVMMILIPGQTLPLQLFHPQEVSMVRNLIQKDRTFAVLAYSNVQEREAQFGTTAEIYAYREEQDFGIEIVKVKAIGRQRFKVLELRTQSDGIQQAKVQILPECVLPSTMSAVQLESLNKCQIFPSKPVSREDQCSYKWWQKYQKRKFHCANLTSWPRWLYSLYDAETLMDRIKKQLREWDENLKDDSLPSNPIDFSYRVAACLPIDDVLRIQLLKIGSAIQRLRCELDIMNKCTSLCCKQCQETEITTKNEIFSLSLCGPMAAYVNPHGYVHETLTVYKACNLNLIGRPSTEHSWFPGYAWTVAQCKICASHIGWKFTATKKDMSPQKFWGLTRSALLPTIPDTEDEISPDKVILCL
hERG (KCNH2), sequence (Q12809 whole entry): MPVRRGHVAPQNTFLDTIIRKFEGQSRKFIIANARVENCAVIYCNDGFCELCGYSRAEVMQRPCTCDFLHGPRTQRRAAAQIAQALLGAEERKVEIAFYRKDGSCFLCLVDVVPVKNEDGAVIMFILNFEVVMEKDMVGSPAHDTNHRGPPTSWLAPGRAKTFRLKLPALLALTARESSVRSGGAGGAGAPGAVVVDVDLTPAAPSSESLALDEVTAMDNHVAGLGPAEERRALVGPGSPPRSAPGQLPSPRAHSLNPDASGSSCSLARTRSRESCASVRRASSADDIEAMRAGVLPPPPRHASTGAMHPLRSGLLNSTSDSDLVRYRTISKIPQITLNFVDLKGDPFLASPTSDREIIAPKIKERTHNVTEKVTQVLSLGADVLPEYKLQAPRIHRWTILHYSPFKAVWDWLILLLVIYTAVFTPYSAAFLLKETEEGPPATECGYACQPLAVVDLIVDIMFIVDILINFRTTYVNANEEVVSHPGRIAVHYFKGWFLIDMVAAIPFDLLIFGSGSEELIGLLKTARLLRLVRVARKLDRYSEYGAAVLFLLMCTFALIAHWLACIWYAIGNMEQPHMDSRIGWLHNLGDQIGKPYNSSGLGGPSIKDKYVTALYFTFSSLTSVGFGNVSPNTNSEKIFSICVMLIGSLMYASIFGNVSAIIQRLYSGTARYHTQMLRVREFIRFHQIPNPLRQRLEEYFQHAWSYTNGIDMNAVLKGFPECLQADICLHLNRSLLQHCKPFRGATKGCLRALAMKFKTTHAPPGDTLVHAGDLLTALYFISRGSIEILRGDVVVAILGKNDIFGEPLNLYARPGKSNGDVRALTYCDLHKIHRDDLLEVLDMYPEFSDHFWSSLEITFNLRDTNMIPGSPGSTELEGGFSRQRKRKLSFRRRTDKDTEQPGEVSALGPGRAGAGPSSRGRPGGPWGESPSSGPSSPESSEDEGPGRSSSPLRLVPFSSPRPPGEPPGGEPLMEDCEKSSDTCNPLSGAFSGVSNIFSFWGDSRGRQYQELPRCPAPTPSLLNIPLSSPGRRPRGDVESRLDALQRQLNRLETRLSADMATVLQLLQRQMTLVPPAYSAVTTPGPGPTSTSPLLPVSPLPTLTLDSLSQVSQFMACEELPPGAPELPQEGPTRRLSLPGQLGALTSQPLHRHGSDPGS

- Activity [1]: inactive
- Activity [2]: 67.1%
- Kd [8]: 0.0253 s⁻¹
- Activity [10]: 90.8%
- Ka [14]: 2.04 10^6/Ms
SMILES: Nc1ncc(-c2ccc(S(=O)(=O)N3CCN(CCCCc4cn(CCOCCOCCOCCOCCOCCNc5cccc6c5C(=O)N(C5CCC(=O)NC5=O)C6=O)nn4)CC3)cc2)nc1C(=O)Nc1cccnc1 (stereo not given)
- Activity (SH-SY5Y [3]): 83%
- Activity (Rattus norvegicus [4]): Active
- inhibition at 40 µM (hERG (KCNH2)): 15.4%
- Activity (SH-SY5Y [5]): 79%
- Activity (SH-SY5Y [6]): inactive
- Activity (Rattus norvegicus [7]): Active
- fold change (FC) [9]: 0.35
- Activity (SH-SY5Y [11]): 6.5%
- Activity (SH-SY5Y [12]): 1%
- Activity (Rattus norvegicus [13]): Active
